According to patent US7863446B2, “Heterocycles” (Orchid Research Laboratories Limited, priority 2006, dated 2011):

Key:
Animals (male wistar) = assay: Ulcerogenic potential; type: in vivo; conditions: oral, 4 hours after administration
Method: In order to evaluate the compound's role on the ulcer formation, the animals were sacrificed and the stomach was taken out and flushed with 1% formalin. Animals (male wistar. 200 g) were fasted for 18 hours with free access to water and the test compounds were suspended in 0.5% Tween 80 and 0.25% CMC (carboxymethylcellulose) solution to make a uniform suspension. After 4 hours of oral administration of test compounds, all the animals were sacrificed by cervical dislocation. The stomach was dissected carefully and filled up with a sterile saline solution and embedded in 6% formalin solution. […] The test compound treated groups were compared with the vehicle treated groups. […]

DU-145 = assay: Anti-cancer screen (MTT), DU-145; type: cell-based; conditions: Homo sapiens, DU-145, 48 hours
HCT-116 = assay: Anti-cancer screen (MTT), HCT-116; type: cell-based; conditions: Homo sapiens, HCT-116, 48 hours
Method: Experimental drugs are screened for anti-cancer activity in three cell lines for their GI50, TG1 and LC50 values (using 5 concentrations for each compound). The cell lines are maintained in DMEM containing 10% fetal bovine serum. 96 well microtiter plates are inoculated with cells in […] for 24 hours at 37° C., 5% CO2, 95% air and 100% relative humidity. 5000 HCT116 cells/well, 5000 NCIH460 cells/well, 10000 U251 cells/well and 5000 MDAMB231 cells/well are plated. A separate plate with these cell lines is also inoculated to determine cell viability before the addition of the compounds (T0).
Addition of Experimental Drugs
Following 24-hour incubation, experimental drugs are added to the 96 well plates. Each plate contains one of the above cell lines and the following in triplicate: 5 different concentrations (0.01, 0.1, 1, 10 and 100 μM) of 4 different compounds, appropriate dilutions of a cytotoxic standard and control (untreated) wells. Compounds are dissolved in dimethylsulfoxide (DMSO) to make 20 mM stock solutions, on the day of drug addition and frozen at −20° C. Serial dilutions of these 20 mM stock solutions are made in complete growth medium such that 100 μL of these drug solutions in medium, of final concentrations equaling 0.01, 0.1, 1, 10 and 100 μM can be added to the cells in triplicate. Standard drugs whose anti-cancer activity has been well documented and which are regularly used are doxorubicin and SAHA.
Cells are incubated with compounds for 48 hours followed by the addition of 10 μL 3-(4,5-Dimethyl-2-thiazolyl)-2,5-diphenyl-2H-tetrazolium (MTT) solution per well and a subsequent incubation at 37° C., 5% CO2, 95% air and 100% relative humidity, protected from light. After 4 hours, well contents are aspirated carefully followed by addition of 150 μL DMSO per well. Plates are agitated to ensure solution of the formazan crystals in DMSO and absorbance read at 570 nm.
Calculation of GI50, TGI and LC50
Percent growth is calculated for each compound's concentration relative to the control and zero measurement wells (T0; viability right before compound addition).
If a test well's O.D. value is greater than the T0 measurement for that cell line % Growth=(test−zero)/(control−zero)×100
If a test well's O.D. value is lower than the T0 measurement for that cell line, then % Growth=(test−zero)/zero×100 Plotting % growth versus experimental drug concentration, GI50 is the concentration required to decrease % growth by 50%; TGI is the concentration required to decrease % growth by 100% and LC50 is the concentration required to decrease % growth by 150%.

COX-2 = molecular target: T1, COX-2 (Homo sapiens, UniProt P35354); assay: Human whole blood assay (PGE-2 inhibition, COX-2); type: cell-based; conditions: LPS stimulated human whole blood, NA = No activity, read-out: % PGE-2 Inhibition in hWBA
T1 construct: Fresh blood was collected in tubes containing sodium heparin by vein puncture from healthy male volunteers; endogenous in cells; host or cells: human whole blood from healthy male volunteers, stimulated with LPS
T1 sequence (P35354 18-604): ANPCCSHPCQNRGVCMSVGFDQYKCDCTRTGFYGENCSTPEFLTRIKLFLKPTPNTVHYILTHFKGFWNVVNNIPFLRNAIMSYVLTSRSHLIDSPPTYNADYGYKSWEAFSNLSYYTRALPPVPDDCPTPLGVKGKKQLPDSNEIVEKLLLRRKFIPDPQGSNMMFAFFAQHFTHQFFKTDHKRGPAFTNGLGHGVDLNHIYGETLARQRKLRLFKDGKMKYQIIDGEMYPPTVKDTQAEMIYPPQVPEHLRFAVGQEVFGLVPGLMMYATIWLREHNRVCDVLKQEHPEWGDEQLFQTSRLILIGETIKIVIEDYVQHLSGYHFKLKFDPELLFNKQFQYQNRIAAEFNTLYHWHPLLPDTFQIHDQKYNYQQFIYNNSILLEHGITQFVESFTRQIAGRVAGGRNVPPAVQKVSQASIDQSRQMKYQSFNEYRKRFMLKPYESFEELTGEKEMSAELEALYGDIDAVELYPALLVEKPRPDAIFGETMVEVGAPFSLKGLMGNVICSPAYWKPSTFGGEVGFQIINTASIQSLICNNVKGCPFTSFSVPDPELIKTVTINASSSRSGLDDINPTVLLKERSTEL
Method: In Vitro Evaluation of Cyclooxygenase-2 (Cox-2) Inhibition Activity
The COX-2 inhibition activities of the compounds illustrated in the examples were determined by the following method.
Human whole blood provides a protein and cell rich milieu appropriate for the study of the biochemical efficacy of anti-inflammatory compounds such as selective COX-2 inhibitors. […] This correlates with the observation that COX-2 inhibitors have no effect on prostaglandin E2 (PGE2) production in normal blood. These inhibitors were active only after incubation of human blood with lipopolysaccharide (LPS), which induces COX-2 production in the blood.
Fresh blood was collected in tubes containing sodium heparin by vein puncture from healthy male volunteers. The subjects should have no apparent inflammatory conditions and should have not taken NSAIDs for at least 7 days prior to blood collection. Blood was preincubated with aspirin in vitro (12 μg/ml, at time zero) to inactivate COX-1 for 6 hours. Then test compounds (at various concentrations) or vehicle were added to blood, the blood was stimulated with LPS B:4 (10 μg/ml) and incubated for another 18 hours at 37° C. water bath. After which the blood was centrifuged, plasma was separated and stored at −80° C. (J. Pharmacol. Exp. Ther, 271, 1705, 1994; Proc. Natl. Acad. Sci. USA, 96, 7563, 1999). The plasma was assayed for PGE2 using Cayman ELISA kit as per the procedure outlined by the manufacturer (Cayman Chemicals, Ann Arbor, USA).

CNS(=O)(=O)c1ccc(-c2c(Cl)nc(C(F)(F)F)nc2-c2ccc(S(C)(=O)=O)cc2)cc1 [Example 4, 4-{4-Chloro-6-[4-(methylsulfonyl)phenyl]-2-(trifluoromethyl)pyrimidin-5-yl}-N-methylbenzenesulfonamide]
Ulcer incidence at 5 mg/kg (Animals (male wistar)): Nil
GI50 (DU-145): 1.93 µM
GI50 (HCT-116): 2 µM
inhibition at 0.25 µM (COX-2; 0.25 μM): 6.1%
inhibition at 1 µM (COX-2; 1 μM): 22.9%
inhibition at 10 µM (COX-2; 10 μM): 35.6%
